Reference: ChEMBL document CHEMBL3991601, “The target landscape of clinical kinase drugs” (Science, 2017)
Where a name gives a salt, the structure may show the parent alone. Calls of active or inactive are those of the source. Cut-off read from the data, not from the text of the source, for most assays here: actives have a measured Kd and inactives only a lower limit.

Legend:
[1] = biological target: Tyrosine-protein kinase BTK (Homo sapiens, UniProt Q06187)
[2] = biological target: Dual specificity tyrosine-phosphorylation-regulated kinase 1A (Homo sapiens, UniProt Q13627)
[3] = biological target: T1, Serine/threonine-protein kinase ULK1 (Homo sapiens, UniProt O75385)
T1 sequence (O75385 whole entry): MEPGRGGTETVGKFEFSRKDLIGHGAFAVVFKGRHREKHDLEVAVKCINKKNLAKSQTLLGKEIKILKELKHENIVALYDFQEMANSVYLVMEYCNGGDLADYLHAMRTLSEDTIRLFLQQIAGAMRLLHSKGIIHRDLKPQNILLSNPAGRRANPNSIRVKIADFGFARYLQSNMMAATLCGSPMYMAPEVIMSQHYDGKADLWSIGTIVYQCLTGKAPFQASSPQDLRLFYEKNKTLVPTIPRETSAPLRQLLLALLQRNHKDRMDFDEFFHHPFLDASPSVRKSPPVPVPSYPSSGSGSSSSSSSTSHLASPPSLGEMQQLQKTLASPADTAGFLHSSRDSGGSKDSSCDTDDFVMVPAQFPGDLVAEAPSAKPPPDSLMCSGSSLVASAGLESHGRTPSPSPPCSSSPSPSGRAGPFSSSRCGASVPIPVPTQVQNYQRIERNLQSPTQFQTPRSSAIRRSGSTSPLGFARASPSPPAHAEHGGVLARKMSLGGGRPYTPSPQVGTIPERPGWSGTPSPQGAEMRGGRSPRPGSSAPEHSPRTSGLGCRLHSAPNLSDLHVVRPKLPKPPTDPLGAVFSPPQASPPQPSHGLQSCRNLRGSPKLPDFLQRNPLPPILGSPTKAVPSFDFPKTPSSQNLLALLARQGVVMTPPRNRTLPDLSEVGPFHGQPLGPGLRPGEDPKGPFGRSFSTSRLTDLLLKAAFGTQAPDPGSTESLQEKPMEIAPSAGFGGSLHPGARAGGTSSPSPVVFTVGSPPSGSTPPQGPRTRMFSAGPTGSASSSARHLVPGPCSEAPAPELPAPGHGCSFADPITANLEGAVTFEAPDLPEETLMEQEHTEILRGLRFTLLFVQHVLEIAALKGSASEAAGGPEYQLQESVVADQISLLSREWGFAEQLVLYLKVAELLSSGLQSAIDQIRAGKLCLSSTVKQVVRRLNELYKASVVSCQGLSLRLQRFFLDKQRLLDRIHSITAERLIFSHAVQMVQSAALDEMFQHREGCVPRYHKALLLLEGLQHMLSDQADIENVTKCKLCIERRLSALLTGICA

[4] = biological target: T2, Serine/threonine-protein kinase TAO1 (Homo sapiens, UniProt Q7L7X3)
T2 sequence (Q7L7X3 whole entry): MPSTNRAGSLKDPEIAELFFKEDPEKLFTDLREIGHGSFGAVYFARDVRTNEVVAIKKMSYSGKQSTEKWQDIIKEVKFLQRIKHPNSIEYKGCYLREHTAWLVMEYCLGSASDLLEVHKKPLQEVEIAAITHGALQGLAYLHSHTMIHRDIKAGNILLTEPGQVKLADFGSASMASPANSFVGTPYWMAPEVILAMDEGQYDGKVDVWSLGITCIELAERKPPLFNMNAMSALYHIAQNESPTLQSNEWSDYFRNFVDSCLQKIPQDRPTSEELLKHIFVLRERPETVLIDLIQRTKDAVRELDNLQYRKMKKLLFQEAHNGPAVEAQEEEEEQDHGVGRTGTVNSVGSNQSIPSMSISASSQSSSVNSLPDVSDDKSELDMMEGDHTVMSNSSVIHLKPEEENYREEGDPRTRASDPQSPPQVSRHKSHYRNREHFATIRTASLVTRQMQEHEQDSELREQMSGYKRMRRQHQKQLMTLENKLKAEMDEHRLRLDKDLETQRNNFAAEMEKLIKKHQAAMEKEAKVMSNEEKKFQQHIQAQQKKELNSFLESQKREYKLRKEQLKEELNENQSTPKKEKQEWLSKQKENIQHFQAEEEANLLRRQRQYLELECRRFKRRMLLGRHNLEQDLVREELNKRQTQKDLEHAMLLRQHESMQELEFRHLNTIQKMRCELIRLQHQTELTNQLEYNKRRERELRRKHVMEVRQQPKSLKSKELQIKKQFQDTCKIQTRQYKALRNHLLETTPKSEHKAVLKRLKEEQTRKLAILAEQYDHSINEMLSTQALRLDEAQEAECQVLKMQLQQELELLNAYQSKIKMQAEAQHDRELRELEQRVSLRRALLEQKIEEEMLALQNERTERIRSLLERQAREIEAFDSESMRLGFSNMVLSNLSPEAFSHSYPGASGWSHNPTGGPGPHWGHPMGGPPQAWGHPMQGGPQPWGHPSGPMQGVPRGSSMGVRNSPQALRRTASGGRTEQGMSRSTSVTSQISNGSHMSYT

[5] = biological target: T3, Interleukin-1 receptor-associated kinase 3 (Homo sapiens, UniProt Q9Y616)
T3 sequence (Q9Y616 whole entry): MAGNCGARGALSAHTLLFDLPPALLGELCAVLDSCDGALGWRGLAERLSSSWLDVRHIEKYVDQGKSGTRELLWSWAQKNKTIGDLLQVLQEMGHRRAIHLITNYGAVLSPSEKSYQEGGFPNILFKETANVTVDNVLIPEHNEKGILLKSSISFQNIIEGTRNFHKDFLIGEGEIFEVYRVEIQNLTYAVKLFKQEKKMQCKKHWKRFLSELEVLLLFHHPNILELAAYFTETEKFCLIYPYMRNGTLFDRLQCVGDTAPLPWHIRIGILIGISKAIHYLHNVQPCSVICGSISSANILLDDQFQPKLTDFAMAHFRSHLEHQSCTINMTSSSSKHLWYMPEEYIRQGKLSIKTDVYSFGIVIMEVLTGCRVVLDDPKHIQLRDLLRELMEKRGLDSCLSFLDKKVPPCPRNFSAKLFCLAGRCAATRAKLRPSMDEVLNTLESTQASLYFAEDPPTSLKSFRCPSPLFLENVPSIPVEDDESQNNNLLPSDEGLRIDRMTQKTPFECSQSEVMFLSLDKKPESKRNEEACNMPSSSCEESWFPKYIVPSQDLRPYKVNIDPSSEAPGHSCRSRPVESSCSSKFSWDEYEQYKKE

[6] = biological target: DNA topoisomerase 2-alpha (Homo sapiens, UniProt P11388)
Chain of DNA topoisomerase 2-alpha (P11388 whole entry): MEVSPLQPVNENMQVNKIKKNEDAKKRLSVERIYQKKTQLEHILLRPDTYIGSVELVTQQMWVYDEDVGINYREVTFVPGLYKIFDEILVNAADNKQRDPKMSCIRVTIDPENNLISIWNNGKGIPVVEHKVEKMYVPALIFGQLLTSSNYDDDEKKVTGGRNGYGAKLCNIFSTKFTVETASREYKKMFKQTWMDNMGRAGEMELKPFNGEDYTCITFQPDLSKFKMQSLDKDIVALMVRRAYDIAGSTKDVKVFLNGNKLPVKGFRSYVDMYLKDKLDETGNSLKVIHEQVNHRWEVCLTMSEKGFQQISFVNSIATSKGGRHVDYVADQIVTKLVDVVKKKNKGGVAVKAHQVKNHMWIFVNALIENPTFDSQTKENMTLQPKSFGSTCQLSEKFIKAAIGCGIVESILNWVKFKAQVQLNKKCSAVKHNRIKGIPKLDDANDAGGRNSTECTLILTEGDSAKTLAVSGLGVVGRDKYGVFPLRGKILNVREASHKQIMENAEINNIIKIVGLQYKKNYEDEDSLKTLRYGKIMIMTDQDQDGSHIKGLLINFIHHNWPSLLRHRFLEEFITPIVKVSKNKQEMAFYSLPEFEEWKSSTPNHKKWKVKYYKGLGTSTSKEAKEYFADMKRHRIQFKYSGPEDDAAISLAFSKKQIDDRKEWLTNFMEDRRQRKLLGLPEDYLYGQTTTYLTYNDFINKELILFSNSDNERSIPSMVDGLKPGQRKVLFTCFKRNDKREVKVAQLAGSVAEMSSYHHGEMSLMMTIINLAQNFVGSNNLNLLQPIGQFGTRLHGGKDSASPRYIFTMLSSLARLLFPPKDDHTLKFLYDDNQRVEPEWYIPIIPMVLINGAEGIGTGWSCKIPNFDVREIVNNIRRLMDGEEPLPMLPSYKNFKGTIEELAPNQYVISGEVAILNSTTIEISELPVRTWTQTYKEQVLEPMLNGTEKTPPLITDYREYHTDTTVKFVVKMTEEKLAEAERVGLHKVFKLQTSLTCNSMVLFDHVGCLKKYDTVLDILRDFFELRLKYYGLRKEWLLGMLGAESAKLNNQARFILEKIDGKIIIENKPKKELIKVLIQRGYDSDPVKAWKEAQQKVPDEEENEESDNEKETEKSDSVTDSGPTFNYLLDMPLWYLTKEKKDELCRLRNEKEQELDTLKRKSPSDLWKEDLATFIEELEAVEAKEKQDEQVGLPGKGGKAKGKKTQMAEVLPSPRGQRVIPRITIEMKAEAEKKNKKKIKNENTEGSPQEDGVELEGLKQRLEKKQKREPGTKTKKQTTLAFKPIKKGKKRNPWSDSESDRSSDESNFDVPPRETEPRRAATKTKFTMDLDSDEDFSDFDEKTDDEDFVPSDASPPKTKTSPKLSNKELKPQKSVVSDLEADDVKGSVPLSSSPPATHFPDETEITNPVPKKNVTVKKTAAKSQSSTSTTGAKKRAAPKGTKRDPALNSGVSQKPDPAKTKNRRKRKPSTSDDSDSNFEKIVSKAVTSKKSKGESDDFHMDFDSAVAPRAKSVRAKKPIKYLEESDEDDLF

[7] = biological target: Dual specificity protein kinase CLK2 (Homo sapiens, UniProt P49760)
Chain of Dual specificity protein kinase CLK2 (P49760 whole entry): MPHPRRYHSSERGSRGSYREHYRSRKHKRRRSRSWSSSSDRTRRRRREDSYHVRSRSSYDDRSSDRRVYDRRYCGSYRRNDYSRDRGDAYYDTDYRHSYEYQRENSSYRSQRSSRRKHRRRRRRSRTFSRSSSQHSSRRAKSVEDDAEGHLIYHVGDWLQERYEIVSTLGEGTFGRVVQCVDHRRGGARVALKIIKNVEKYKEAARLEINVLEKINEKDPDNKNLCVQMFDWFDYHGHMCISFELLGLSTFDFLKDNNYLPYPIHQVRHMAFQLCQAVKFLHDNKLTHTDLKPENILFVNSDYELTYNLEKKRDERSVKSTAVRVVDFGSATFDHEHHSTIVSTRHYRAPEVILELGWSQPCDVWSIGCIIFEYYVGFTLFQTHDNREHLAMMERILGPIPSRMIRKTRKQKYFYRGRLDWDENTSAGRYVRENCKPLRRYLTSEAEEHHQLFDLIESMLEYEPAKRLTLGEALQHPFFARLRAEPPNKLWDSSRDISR
Note: in the data inactive means no Kd found up to 30 µM.

Chain of Tyrosine-protein kinase BTK (Q06187 whole entry): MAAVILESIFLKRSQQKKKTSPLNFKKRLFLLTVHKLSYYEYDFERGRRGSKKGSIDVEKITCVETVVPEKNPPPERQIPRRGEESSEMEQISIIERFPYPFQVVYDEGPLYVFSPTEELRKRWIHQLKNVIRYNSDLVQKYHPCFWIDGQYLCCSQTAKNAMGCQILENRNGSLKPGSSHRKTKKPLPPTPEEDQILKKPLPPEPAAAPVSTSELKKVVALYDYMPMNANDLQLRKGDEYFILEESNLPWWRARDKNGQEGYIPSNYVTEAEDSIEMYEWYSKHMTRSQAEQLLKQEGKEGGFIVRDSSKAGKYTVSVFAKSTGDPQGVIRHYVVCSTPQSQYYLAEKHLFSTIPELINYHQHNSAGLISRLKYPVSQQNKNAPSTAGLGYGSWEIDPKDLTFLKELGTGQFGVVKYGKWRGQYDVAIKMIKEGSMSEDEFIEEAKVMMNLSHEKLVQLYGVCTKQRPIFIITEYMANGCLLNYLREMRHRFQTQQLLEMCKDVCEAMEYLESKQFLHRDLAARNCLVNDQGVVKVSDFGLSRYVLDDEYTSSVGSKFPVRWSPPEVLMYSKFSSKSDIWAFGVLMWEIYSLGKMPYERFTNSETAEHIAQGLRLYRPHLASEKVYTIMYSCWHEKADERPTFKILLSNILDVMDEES

Row | Structure (SMILES) | Kd [1] | Kd [2] | Kd [3] | Kd [4] | Kd [5] | Kd [6] | Kd [7]
1 | C[C@H]1CNCCCN1S(=O)(=O)c1cccc2cncc(F)c12 | > 30 µM (inactive) | > 30 µM (inactive) | > 30 µM (inactive) | > 30 µM (inactive) | > 30 µM (inactive) | – | –
2 | CC(=O)c1cnc2ccc(-c3cc(Cl)c(O)c(Cl)c3)nc2c1N[C@H]1CC[C@H](CN(C)C)CC1 | 0.361 µM (active) | 0.01 µM (active) | > 30 µM (inactive) | 0.017 µM (active) | 0.012 µM (active) | > 30 µM (inactive) | > 30 µM (inactive)
3 | Cc1nc(NC(=O)N2CCC[C@H]2C(N)=O)sc1-c1ccnc(C(C)(C)C(F)(F)F)c1 [ALPELISIB] | > 30 µM (inactive) | > 30 µM (inactive) | > 30 µM (inactive) | > 30 µM (inactive) | > 30 µM (inactive) | > 30 µM (inactive) | > 30 µM (inactive)
4 | COc1cc([C@@H]2c3cc4c(cc3[C@H](O)[C@H]3COC(=O)[C@@H]23)OCO4)cc(OC)c1OC [AXL-1717] | > 30 µM (inactive) | > 30 µM (inactive) | – | > 30 µM (inactive) | > 30 µM (inactive) | 0.486 µM | –
5 | NC(=O)Nc1cc(-c2cccc(F)c2)sc1C(=O)N[C@H]1CCCNC1 [AZD-7762] | 3.07 µM (active) | 1.68 µM (active) | 0.115 µM (active) | > 30 µM (inactive) | > 30 µM (inactive) | > 30 µM (inactive) | > 30 µM (inactive)
6 | CC(C)(C)c1nc(-c2cccc(NS(=O)(=O)c3c(F)cccc3F)c2F)c(-c2ccnc(N)n2)s1 [DABRAFENIB] | – | – | 0.188 µM (active) | – | > 30 µM (inactive) | > 30 µM (inactive) | > 30 µM (inactive)
7 | O=C(Nc1nc2cccc(-c3ccc(CN4CCS(=O)(=O)CC4)cc3)n2n1)C1CC1 [FILGOTINIB] | > 30 µM (inactive) | > 30 µM (inactive) | > 30 µM (inactive) | > 30 µM (inactive) | > 30 µM (inactive) | – | > 30 µM (inactive)
8 | CCOc1cc2ncc(C#N)c(Nc3ccc(F)c(Cl)c3)c2cc1NC(=O)/C=C/CN(C)C [PELITINIB] | 0.514 µM (active) | > 30 µM (inactive) | > 30 µM (inactive) | > 30 µM (inactive) | > 30 µM (inactive) | > 30 µM (inactive) | > 30 µM (inactive)
9 | CCCCCCCCCCCCCCCCCCOP(=O)([O-])OC1CC[N+](C)(C)CC1 [PERIFOSINE] | > 30 µM (inactive) | > 30 µM (inactive) | > 30 µM (inactive) | > 30 µM (inactive) | > 30 µM (inactive) | – | –
10 | O=c1[nH]ccc2cc(OC3CCNCC3)ccc12 [SAR-407899 FREE BASE] | > 30 µM (inactive) | > 30 µM (inactive) | > 30 µM (inactive) | > 30 µM (inactive) | > 30 µM (inactive) | > 30 µM (inactive) | > 30 µM (inactive)

Further lines, results first:

Row | Kd [1] | Kd [2] | Kd [3] | Kd [4] | Kd [5] | Kd [6] | Kd [7] | Structure (SMILES)
11 | 0.004 µM (active) | > 30 µM (inactive) | > 30 µM (inactive) | > 30 µM (inactive) | > 30 µM (inactive) | > 30 µM (inactive) | > 30 µM (inactive) | C=CC(=O)N1CCC[C@H](n2c(=O)n(-c3ccc(Oc4ccccc4)cc3)c3c(N)ncnc32)C1
12 | > 30 µM (inactive) | > 30 µM (inactive) | 0.19 µM (active) | 1.9 µM (active) | > 30 µM (inactive) | > 30 µM (inactive) | 3.22 µM (active) | Cc1csc(-c2nnc(Nc3ccc(Oc4ncccc4-c4ccnc(N)n4)cc3)c3ccccc23)c1 [AMG-900]
13 | > 30 µM (inactive) | > 30 µM (inactive) | > 30 µM (inactive) | > 30 µM (inactive) | > 30 µM (inactive) | > 30 µM (inactive) | > 30 µM (inactive) | Cn1cnc2c(F)c(Nc3ccc(Br)cc3F)c(C(=O)NOCCO)cc21 [BINIMETINIB]
14 | > 30 µM (inactive) | > 30 µM (inactive) | 2.82 µM | 2.17 µM (active) | > 30 µM (inactive) | > 30 µM (inactive) | > 30 µM (inactive) | CCS(=O)(=O)N1CCN(c2ccc(Nc3ncc(C(N)=O)c(NC4CC4)n3)cc2)CC1 [Cerdulatinib Hydrochloride]
15 | > 30 µM (inactive) | > 30 µM (inactive) | > 30 µM (inactive) | > 30 µM (inactive) | > 30 µM (inactive) | > 30 µM (inactive) | > 30 µM (inactive) | Cc1nc2cc(-n3ncc(C(=O)c4cc5ccccc5[nH]4)c3N)ccc2[nH]1 [FGFR INHIBITOR DEBIO 1347]
16 | > 30 µM (inactive) | > 30 µM (inactive) | > 30 µM (inactive) | > 30 µM (inactive) | 0.502 µM (active) | > 30 µM (inactive) | – | CN(C[C@@H]1COCCO1)S(=O)(=O)Nc1ccc2ccc3ncc(-c4cnn(C)c4)cc3c(=O)c2c1 [MK-2461]
17 | – | – | > 30 µM (inactive) | – | > 30 µM (inactive) | > 30 µM (inactive) | – | Cc1[nH]c(/C=C2\C(=O)Nc3ccccc32)c(C)c1CCC(=O)O [ORANTINIB]
18 | 1.23 µM | > 30 µM (inactive) | > 30 µM (inactive) | > 30 µM (inactive) | > 30 µM (inactive) | > 30 µM (inactive) | > 30 µM (inactive) | Cc1nc(Nc2n[nH]c3c2CN(C(=O)N[C@H](CN(C)C)c2ccccc2)C3(C)C)c2sccc2n1 [PF-03758309]
19 | > 30 µM (inactive) | 3.22 µM (active) | > 30 µM (inactive) | > 30 µM (inactive) | > 30 µM (inactive) | > 30 µM (inactive) | > 30 µM (inactive) | C[C@@H](NC(=O)c1ncnc(N)c1Cl)c1ncc(C(=O)Nc2cc(C(F)(F)F)c(Cl)cn2)s1 [TOVORAFENIB]
20 | > 30 µM (inactive) | 0.238 µM | > 30 µM (inactive) | > 30 µM (inactive) | > 30 µM (inactive) | > 30 µM (inactive) | > 30 µM (inactive) | Cn1ncc(Cl)c1-c1cc(C(=O)N[C@H](CN)Cc2ccc(F)c(F)c2)oc1Cl [UPROSERTIB]
